Assay results reported in ChEMBL document CHEMBL1629541, “Synthesis and structure-activity relationships of aza- and diazabiphenyl analogues of the antitubercular drug (6S)-2-nitro-6-{[4-(trifluoromethoxy)benzyl]oxy}-6,7-dihydro-5H-imidazo[2,1-b][1,3]oxazine (PA-824)” (J Med Chem, 2010).
In brackets after ≈: the same amount, converted by molar mass.

How the values were obtained:
physchem [1] = details: water, pH 7
Description: Solubility of the compound in water at pH 7.0 by HPLC

physchem [2] = details: water, pH 1
Description: Solubility of the compound in water at pH 1.0 by HPLC

in vitro [3] = details: human, liver microsomes
Description: Metabolic stability in human liver microsomes assessed as compound remaining after 1 hr

in vitro [4] = details: CD1, mouse, liver microsomes
Description: Metabolic stability in CD1 mouse liver microsomes assessed as compound remaining after 1 hr

[5] = tested on: Mycobacterium tuberculosis; experiment: microbe, parasite or virus in culture; details: H37Rv
[6] = tested on: Mycobacterium tuberculosis; experiment: microbe, parasite or virus in culture; details: H37Rv; remark: listed apart in the source
Description: Antitubercular activity against Mycobacterium tuberculosis H37Rv by LORA method

[7] = AUC (0-infinity) in CD1 mouse plasma at 40 mg/kg, po administered as single dose; type: ADME, organism-based; parameters: time infinity, dose 40 mg/kg, route oral
[8] = Cmax in CD1 mouse plasma at 40 mg/kg, po administered as single dose; type: ADME, organism-based; parameters: dose 40 mg/kg, route oral
[9] = Half life in CD1 mouse plasma at 40 mg/kg, po administered as single dose; type: ADME, organism-based; parameters: dose 40 mg/kg, route oral
[10] = AUC (0-infinity) in CD1 mouse lung at 40 mg/kg, po administered as single dose; type: ADME, organism-based; parameters: time infinity, dose 40 mg/kg, route oral
[11] = Cmax in CD1 mouse lung at 40 mg/kg, po administered as single dose; type: ADME, organism-based; parameters: dose 40 mg/kg, route oral
[12] = Half life in CD1 mouse lung at 40 mg/kg, po administered as single dose; type: ADME, organism-based; parameters: dose 40 mg/kg, route oral
[13] = Thermodynamic solubility in aqueous buffer at pH 1 at 20 degC by HPLC; type: physicochemical; details: aqueous buffer
[14] = Thermodynamic solubility in aqueous buffer at pH 7.4 at 20 degC by HPLC; type: physicochemical
[15] = Ratio of AUC (0-infinity) in lung to AUC (0-infinity) in plasma of CD1 mouse at 40 mg/kg, po administered as single dose; type: ADME, organism-based; parameters: dose 40 mg/kg, route oral

Row | SMILES | solubility (physchem [1]) | solubility (physchem [2]) | remaining at 1 h (in vitro [3]) | remaining at 1 h (in vitro [4]) | MIC [5] | MIC [6] | AUC(0-inf) [7] | Cmax [8] | half-life [9] | AUC(0-inf) [10] | Cmax [11] | half-life [12] | solubility thermodynamic [13] | solubility thermodynamic [14] | Kp [15]
1 | O=[N+]([O-])c1cn2c(n1)OC[C@@H](OCc1ccc(-c3ccc(F)nc3)cc1)C2 | 8 µg/mL (≈ 21.6 µM) | 10 µg/mL (≈ 27 µM) | 88% | 79% | 0.095 µM (≈ 0.0352 µg/mL) | 2.1 µM (≈ 0.778 µg/mL) | – | – | – | – | – | – | – | – | –
2 | O=[N+]([O-])c1cn2c(n1)OC[C@@H](OCc1ccc(-c3ccc(OC(F)(F)F)cc3)nn1)C2 | – | 31 µg/mL (≈ 70.9 µM) | 94% | 92% | 0.075 µM (≈ 0.0328 µg/mL) | 1.7 µM (≈ 0.743 µg/mL) | 52 µg·h/mL | 3600 ng/mL | 2.9 h | 94 µg·h/mL | 7000 ng/mL | 3.4 h | 10 µg/mL (≈ 22.9 µM) | 3 µg/mL (≈ 6.86 µM) | –
3 | O=[N+]([O-])c1cn2c(n1)OC[C@@H](OCc1cncc(-c3ccc(F)cc3)c1)C2 | 45 µg/mL (≈ 122 µM) | 41000 µg/mL (≈ 111000 µM) | 71% | 39% | 0.31 µM (≈ 0.115 µg/mL) | 7.7 µM (≈ 2.85 µg/mL) | – | – | – | – | – | – | – | – | –
4 | O=[N+]([O-])c1cn2c(n1)OC[C@@H](OCc1ccc(-c3ccc(F)cc3)nc1)C2 | – | 1000 µg/mL (≈ 2700 µM) | 88% | 80% | 0.06 µM (≈ 0.0222 µg/mL) | 2.9 µM (≈ 1.07 µg/mL) | 61 µg·h/mL | 5300 ng/mL | 2.7 h | 136 µg·h/mL | 11000 ng/mL | 2.8 h | > 93 µg/mL | 5.9 µg/mL (≈ 15.9 µM) | –
5 | O=[N+]([O-])c1cn2c(n1)OC[C@@H](OCc1ccc(-c3ncc(C(F)(F)F)cc3Cl)cc1)C2 | 3.3 µg/mL (≈ 7.26 µM) | 2 µg/mL (≈ 4.4 µM) | 86% | 80% | 0.025 µM (≈ 0.0114 µg/mL) | 1 µM (≈ 0.455 µg/mL) | – | – | – | – | – | – | – | – | –
6 | O=[N+]([O-])c1cn2c(n1)OC[C@@H](OCc1ccc(-c3ccc(C(F)(F)F)cn3)cn1)C2 | 5.9 µg/mL (≈ 14 µM) | 442 µg/mL (≈ 1050 µM) | – | – | 0.83 µM (≈ 0.35 µg/mL) | 9.6 µM (≈ 4.04 µg/mL) | – | – | – | – | – | – | – | – | –
7 | O=[N+]([O-])c1cn2c(n1)OC[C@@H](OCc1ncc(-c3ccc(OC(F)(F)F)cc3)cn1)C2 | – | 5.1 µg/mL (≈ 11.7 µM) | 92% | 87% | 0.11 µM (≈ 0.0481 µg/mL) | 1.9 µM (≈ 0.831 µg/mL) | – | – | – | – | – | – | – | – | –
8 | O=[N+]([O-])c1cn2c(n1)OC[C@@H](OCc1ccc(OC(F)(F)F)cc1)C2 [PRETOMANID] | – | – | – | – | – | – | – | – | – | – | – | – | 11 µg/mL (≈ 30.6 µM) | – | –
9 | O=[N+]([O-])c1cn2c(n1)OC[C@@H](OCc1ccnc(-c3ccc(OC(F)(F)F)cc3)c1)C2 | 3.9 µg/mL (≈ 8.94 µM) | – | 54% | 31% | 0.035 µM (≈ 0.0153 µg/mL) | 2.4 µM (≈ 1.05 µg/mL) | – | – | – | – | – | – | – | – | –
10 | O=[N+]([O-])c1cn2c(n1)OC[C@@H](OCc1ccc(-c3ccc(C(F)(F)F)nc3)cc1)C2 | 1 µg/mL (≈ 2.38 µM) | 11 µg/mL (≈ 26.2 µM) | 86% | – | 0.03 µM (≈ 0.0126 µg/mL) | 2.1 µM (≈ 0.883 µg/mL) | 217 µg·h/mL | 14000 ng/mL | – | 414 µg·h/mL | 373000 ng/mL | 9.1 h | 0.38 µg/mL (≈ 0.904 µM) | 0.17 µg/mL (≈ 0.404 µM) | 1.9
11 | O=[N+]([O-])c1cn2c(n1)OC[C@@H](OCc1ccc(-c3ccnc(F)c3)cc1)C2 | 14 µg/mL (≈ 37.8 µM) | 15 µg/mL (≈ 40.5 µM) | 93% | 86% | 0.23 µM (≈ 0.0852 µg/mL) | 1.4 µM (≈ 0.518 µg/mL) | – | – | – | – | – | – | – | – | –
12 | O=[N+]([O-])c1cn2c(n1)OC[C@@H](OCc1cnc(-c3ccc(OC(F)(F)F)cc3)nc1)C2 | – | 3 µg/mL (≈ 6.86 µM) | 96% | 87% | 0.027 µM (≈ 0.0118 µg/mL) | 1.8 µM (≈ 0.787 µg/mL) | 43 µg·h/mL | 1200 ng/mL | 23 h | 131 µg·h/mL | 4000 ng/mL | 18 h | 1.5 µg/mL (≈ 3.43 µM) | 1.2 µg/mL (≈ 2.74 µM) | –
13 | N#Cc1ccc(-c2cc(CO[C@@H]3COc4nc([N+](=O)[O-])cn4C3)ccn2)cc1 | 8 µg/mL (≈ 21.2 µM) | – | – | – | 0.38 µM (≈ 0.143 µg/mL) | 13 µM (≈ 4.91 µg/mL) | – | – | – | – | – | – | – | – | –
14 | COc1ccc(-c2ccc(CO[C@@H]3COc4nc([N+](=O)[O-])cn4C3)nc2)cc1F | 10 µg/mL (≈ 25 µM) | – | – | – | 0.17 µM (≈ 0.0681 µg/mL) | 3.4 µM (≈ 1.36 µg/mL) | – | – | – | – | – | – | – | – | –
15 | O=[N+]([O-])c1cn2c(n1)OC[C@@H](OCc1ccc(-c3ccc(C(F)(F)F)nc3)nc1)C2 | 7 µg/mL (≈ 16.6 µM) | – | – | – | 0.19 µM (≈ 0.0801 µg/mL) | 17 µM (≈ 7.16 µg/mL) | – | – | – | – | – | – | – | – | –
16 | O=[N+]([O-])c1cn2c(n1)OC[C@@H](OCc1cncc(-c3ccc(C(F)(F)F)cc3)c1)C2 | 2.8 µg/mL (≈ 6.66 µM) | – | – | – | 0.15 µM (≈ 0.0631 µg/mL) | 3.5 µM (≈ 1.47 µg/mL) | – | – | – | – | – | – | – | – | –
17 | N#Cc1ccc(-c2ccc(CO[C@@H]3COc4nc([N+](=O)[O-])cn4C3)nc2)cc1 | 45 µg/mL (≈ 119 µM) | – | – | – | 0.18 µM (≈ 0.0679 µg/mL) | 7.5 µM (≈ 2.83 µg/mL) | – | – | – | – | – | – | – | – | –
18 | O=[N+]([O-])c1cn2c(n1)OC[C@@H](OCc1ccc(-c3ccc(F)cn3)cc1)C2 | – | 275 µg/mL (≈ 743 µM) | 83% | 61% | 0.035 µM (≈ 0.013 µg/mL) | 1.3 µM (≈ 0.481 µg/mL) | – | – | – | – | – | – | – | – | –
19 | O=[N+]([O-])c1cn2c(n1)OC[C@@H](OCc1ccccc1-c1cccnc1)C2 | 116 µg/mL (≈ 329 µM) | – | – | – | > 8 µM | > 32 µM | – | – | – | – | – | – | – | – | –
20 | N#Cc1ccc(-c2cncc(CO[C@@H]3COc4nc([N+](=O)[O-])cn4C3)c2)cc1 | 29 µg/mL (≈ 76.8 µM) | – | – | – | 0.69 µM (≈ 0.26 µg/mL) | 18 µM (≈ 6.79 µg/mL) | – | – | – | – | – | – | – | – | –
21 | COc1ccc(-c2ccnc(CO[C@@H]3COc4nc([N+](=O)[O-])cn4C3)c2)cn1 | 96 µg/mL (≈ 250 µM) | – | – | – | 3.8 µM (≈ 1.46 µg/mL) | 31 µM (≈ 11.9 µg/mL) | – | – | – | – | – | – | – | – | –
